Data reported in patent publication US4695581A, “2-(3,5-dialkyl-4-hydroxyphenyl)indole derivatives” (Teikoku Hormone Mfg. Co., Ltd., priority 1984, dated 1987).
Structures can show the parent of a compound that is named as a salt.

Assays:
[1] = test system: SRS-A-like active substance; assay: A23187-induced pleurisy; inhibition of formation of SRS-A-like active substance in pleural exudate; assay type: in vivo, rat (Wistar-strain, male, 11 weeks old); conditions: Rattus norvegicus, po, p.o., 60 minutes before intrapleural A23187, rats, vs solvent control, read-out: Inhibitory activity on the formation of SRS-A-like active substance
Description: (1) Preparation of A23187 -induced pleurisy Under ether anaesthesia, 0.2 ml of 100 μM A23187 (prepared by adding injectable distilled water in a 2 mM A23187 ethanol solution) was administered intrapleurally to rats (Wistar-strain, male, 11 weeks old). Twenty minutes after the administration, the rats were exsanguinated and the pleural exudate was harvested. […] (2) Measurement of SRS-A-like active substance To the exudate obtained in (1) was added 4 times its volume of ice-cooled ethanol. They were well mixed, and then centrifuged. […] The solution was added to SEP-PAK® (C18) and SRS-A-like active substance was partially purified. […] The residue was dissolved in purified water in an amount corresponding to the amount of the exudate. The SRS-A-like active substance was assayed on the basis of contraction of the ileum of guinea pig (Hartley-strain, male, body weight 400-500 g) in the presence of atropine and Pyrilamine. The presence of SRS-A was confirmed by the fact that the contraction of the isolated ileum by the test solution was antagonized by FPL-55712 which is a specific antagonist for SRS-A. The results are shown in the following table. The activity of inhibiting the formation of an SRS-A-like active substance is indicated as the percent inhibition based on a control group to which only the solvent was administered.

SD-strain male rats = assay: Toxicity, oral administration, observation for 2 weeks; assay type: in vivo, rat (SD-strain; conditions: 5 g/kg, 10% gum arabic suspension, 5-membered groups
Description: The test compound was suspended in a 10% gum arabic solution, and orally administered to SD-strain male rats (body weight 100-115 g) in 5-membered groups.

lipoxygenase = conditions: known from the prior art; cited from earlier work
cyclooxygenase = conditions: known from the prior art; cited from earlier work
SRS-A = assay: Contraction of isolated guinea pig ileum by the test solution (confirmation of SRS-A); design: species or system guinea pig (Hartley-strain, male); conditions: in the presence of atropine and Pyrilamine
Description: The SRS-A-like active substance was assayed on the basis of contraction of the ileum of guinea pig (Hartley-strain, male, body weight 400-500 g) in the presence of atropine and Pyrilamine. The presence of SRS-A was confirmed by the fact that the contraction of the isolated ileum by the test solution was antagonized by FPL-55712 which is a specific antagonist for SRS-A.

SMILES	inhibition at 10 mg/kg [1] [%]	other results
COc1ccc2[nH]c(-c3cc(C)c(O)c(C)c3)c(C)c2c1 [Example 1, 2-(4-hydroxy-3,5-dimethylphenyl)-5-methoxy-3-methylindole]	66.2	death (SD-strain male rats): No case of death was observed
CC(=O)Oc1ccc2[nH]c(-c3cc(C)c(O)c(C)c3)c(C)c2c1 [Example 37]	43.7	
CCN(CC)CCOc1ccc2[nH]c(-c3cc(C)c(O)c(C)c3)c(C)c2c1 [Example 35, 5-(2-diethylaminoethoxy)-2-(4-hydroxy-3,5-dimethylphenyl)-3-methylindole]	39.1	
CCCCCC#CCC#CCC#CCC#CCCCC(=O)O [5,8,11,14-eicosatetraynoic acid]		lipoxygenase inhibition (lipoxygenase): lipoxygenase inhibitors; cyclooxygenase inhibition (lack of specificity) (cyclooxygenase): lack specificity and inhibit not only lipoxygenase but also cyclooxygenase
Cc1ccc2c(C)c(-c3cc(C)c(O)c(C)c3)[nH]c2c1 [Example 14, 2-(4-Hydroxy-3,5-dimethylphenyl)-3,6-dimethylindole]	30.7	
Cc1cc(-c2[nH]c3ccc(OCc4ccccc4)cc3c2C)cc(C)c1O [Example 36, 5-benzyloxy-2-(4-hydroxy-3,5-dimethylphenyl)-3-methylindole]	35.4	
CCN(CC)CCNc1ccc2[nH]c(-c3cc(C)c(O)c(C)c3)c(C)c2c1 [Example 38, 5-(2-diethylaminoethylamino)-2-(4-hydroxy-3,5-dimethylphenyl)-3-methylindole dihydrochloride]	38.3	
CCc1c(-c2cc(C)c(O)c(C)c2)[nH]c2ccccc12 [Example 44, 3-ethyl-2-(4-hydroxy-3,5-dimethylphenyl)indole]	46.9	inhibition at 30 mg/kg [1]: 87.2%
CCCOc1ccc2[nH]c(-c3cc(C)c(O)c(C)c3)c(C)c2c1 [Example 43, 2-(4-hydroxy-3,5-dimethylphenyl)-3-methyl-5-n-propoxyindole]	46.2	
CCc1cc(-c2[nH]c3ccccc3c2C)cc(CC)c1O [Example 46, 2-(3,5-diethyl-4-hydroxyphenyl)-3-methylindole]	22.9	inhibition at 30 mg/kg [1]: 74.2%
CCOc1ccc2[nH]c(-c3cc(C)c(O)c(C)c3)c(C)c2c1 [Example 8, 5-Ethoxy-2-(4-hydroxy-3,5-dimethylphenyl)-3-methylindole]	28.7	
CCc1cc(-c2[nH]c3ccccc3c2CC)cc(CC)c1O [Example 50, 3-ethyl-2-(3,5-diethyl-4-hydroxyphenyl)indole]	21.5	
Cc1cc(-c2[nH]c3ccc(N)cc3c2C)cc(C)c1O [Example 33, 5-amino-2-(4-hydroxy-3,5-dimethylphenyl)-3-methylindole]	68.1	
Cc1cc(-c2[nH]c3ccc(OC(C)C)cc3c2C)cc(C)c1O [Example 9, 2-(4-Hydroxy-3,5-dimethylphenyl)-3-methyl-5-isopropoxyindole]	58.4	
NC1=NN(c2cccc(C(F)(F)F)c2)CC1 [BW755C, 3-amino-1-(3-trifluoromethylphenyl)-2-pyrazoline]		lipoxygenase inhibition (lipoxygenase): lipoxygenase inhibitors; cyclooxygenase inhibition (lack of specificity) (cyclooxygenase): lack specificity and inhibit not only lipoxygenase but also cyclooxygenase
Cc1cc(-c2[nH]c3ccccc3c2C)cc(C)c1O [Example 30, 2-(4-hydroxy-3,5-dimethylphenyl)-3-methylindole]	58	inhibition at 30 mg/kg [1]: 90.2%
CSc1ccc2[nH]c(-c3cc(C)c(O)c(C)c3)c(C)c2c1 [Example 10, 2-(4-hydroxy-3,5-dimethylphenyl)-3-methyl-5-methylthioindole]	41	
CCc1c(-c2cc(C)c(O)c(C)c2)[nH]c2ccc(OC)cc12 [Example 45, 3-ethyl-2-(4-hydroxy-3,5-dimethylphenyl)-5-methoxyindole]	52.7	
CCc1cc(-c2[nH]c3ccc(OC)cc3c2C)cc(CC)c1O [Example 48, 2-(3,5-diethyl-4-hydroxyphenyl)-5-methoxy-3-methylindole]	28.3	
COc1cc2[nH]c(-c3cc(C)c(O)c(C)c3)c(C)c2cc1OC [Example 24, 2-(4-Hydroxy-3,5-dimethylphenyl)-5,6-dimethoxy-3-methylindole]	70.4	
Cc1ccc2[nH]c(-c3cc(C)c(O)c(C)c3)c(C)c2c1 [Example 5, 2-(4-Hydroxy-3,5-dimethylphenyl)-3,5-dimethylindole]	54.7	
CCCc1c(OCC(O)COc2ccc3c(=O)cc(C(=O)O)oc3c2CCC)ccc(C(C)=O)c1O (centres unmarked) [FPL-55712]		antagonism of contraction of the isolated ileum (SRS-A): antagonized
Cc1cc(-c2[nH]c3c(C)cccc3c2C)cc(C)c1O [Example 16, 2-(4-Hydroxy-3,5-dimethylphenyl)-3,7-dimethylindole]	37.5	
